In US20240254135A1, “POLYPHENOL COMPOUNDS” (Epirium Bio Inc., priority 2022, published 2024):

Columns and labels:
[1] = Pharmacokinetics: quantitative determination in mice plasma (LCMS); assay type: in vivo, C57BL/6 Mice; conditions: C57BL/6, mouse, 10 mg/kg PO single dose, 10% NMP vehicle; for AUC(0-t): read-out: AUC0-4 h
Method: C57BL/6 Mice, Age 7-9 weeks, body weight range 20-25 g were used. The mice were fasted overnight. Mice were dosed once a day for a single day at 10 mg/kg, 10 mg/kg. 6 time-points were used for whole blood. 10% NMP was used as a vehicle. 9 animals were used per treatment, with three groups of three animals each. Group 1 had time points at 15 and 60 minutes, Group 2 had time points at 30 and 120 minutes, and Group 3 had time points at 90 and 240 minutes. An Oral (PO) route was used. Plasma and brain samples were collected (brain sample collected at terminal time point). Plasma was collected through the centrifugation of whole blood at 10,000 rpm for 10 minutes at 4° C. Samples were stored at −80° C. until processing.
1.00 mg/mL in 100% MeOH PP vials (prepared at RT yellow light) at 2-8° C. were used as stock solution. 12.22-50000 ng/ml using 80% MeOH PP vials (prepared at RT yellow light) at 2-8° C. were used as working solution. 0.98-4000 ng/ml (prepared at RT yellow light) was used for the curve range. For Compounds 75b and 78a, 1.00 mg/mL of Compound 79 in 100% methanol Ria vials (Prepared at RT yellow light) was used as IS stock solution, and 60 ng/ml of Compound 79 in 80% methanol (Prepared at RT yellow light) was used as IS working solution. For Compound 76b, 1.00 mg/mL of Compound 44 in 100% methanol Ria vials (Prepared at RT yellow light) was used as IS stock solution, and 60 ng/ml of Compound 44 in 80% methanol (Prepared at RT yellow light) was used as IS working solution. A linear, 1/x2 fit type was used. The injection volume was 15 μL. Mobile Phase A was 0.1% Formic Acid in water at room temperature. Mobile Phase B was 100% methanol at room temperature. R0 wash solution was 80% methanol at room temperature. R^3 wash solution was IPA/MeOH/ACN/water (1:1:1:1) at room temperature. The column was Agilent Eclipse 50*2.1 mm 1.8 μm and the instrument was Shimadzu LC-40 UPLC and AB Sciez 6500+ with LCMS002.
For Compound 75b, using a pipette with Methanol-rinsed pipette tips, 25 μL of each sample was aliquoted (calibration curve sample, QC samples and blank matrix) to labeled 12×75-mm glass tubes. Using Methanol-rinsed pipette tips, 5.0 μL of IS of conc. 60 ng (Compound 79) was aliquoted to each standards and samples except Blank. All tubes were mixed on a multi-tube vortex for approximately 30 seconds. 50 μL of 10 mM Sodium bicarbonate were added. 1 ml of Ethyl Acetate was added. All tubes were mixed on a multi-tube vortex for approximately 5 minutes then centrifuged for 10 min at 5,000 rpm, 4° C. The sample was kept in methanol containing dry ice for a few seconds to freeze the Aqueous layer (flash freeze method). The upper organic layer was poured from the frozen tubes into the labeled 12×75-mm glass tubes then evaporated to dryness under nitrogen using Liquid Evaporator (30° C., ˜15 psi, ˜10 mins). 200 μl of reconstitution solution (0.1% Acetic acid:MeOH (60:40 v/v) were added into each tube. Samples were vortexed for 30 seconds then transferred to amber glass injection vials for injection.
For Compounds 76b and 78a, using a pipette, 25 μL of each sample were aliquoted (calibration curve sample, QC samples and blank matrix) to labeled 1.5 ml eppendorfs. Using a pipette, 5.0 μL of IS of conc. 100 ng (Cocktail IS) was aliquoted to each standards and samples except Blank. All tubes were mixed on a multi-tube vortex for approximately 30 seconds. 1 ml of tert-butyl methyl ether (TBME) was added. All tubes were mixed on a multi-tube vortex for approximately 5 minutes then centrifuged for 10 min at 10,000 rpm, 4° C. The sample was kept in methanol containing dry ice for few seconds to freeze the Aqueous layer (flash freeze method). The upper organic layer was poured from the frozen tubes into the labeled 12×75-mm rial vials then vaporated to dryness under nitrogen using Liquid Evaporator (30° C., −15 psi, 10 mins). 200 μl of reconstitution solution (10 mM Ammonium Formate: MeOH) (40:60 v/v) was added into each tube. […]

PGC-1α = experiment: In vitro PGC-1α expression in differentiated C2C12 cells (cell ELISA); assay type: cell-based
Method: Culture conditions: DMEM containing 25 mM glucose with 10% FBS supplementation; grown at 37° C. and 5% CO2.
Drugs: (+)Epicatechin, AICAR (direct activator of AMPK).
Assay Conditions: C2C12 cells were cultured in DMEM supplemented in 10% FBS up to 80% confluence. The cells were further trypsinized and seeded into a 96 well plate at a density of 5000 cells/well (well volume—100 μL) (Day 0). Following attachment, the cells were allowed to reach 80-90% confluence in the plate (typically 48 hours post seeding) and further differentiated using DMEM+2% Horse Serum (200 μL/well). The media was changed every day or at least every alternate day for 5 days to allow myoblasts to differentiate into myotubes. On day 7 (post seeding), the cells were treated with standards and test compounds for PGC-1 α assay.
PGC-1α assay: For the detection of PGC-1α, the cells were incubated with 0.5 μg/ml primary antibody (Merck, WH0010891M3) in PBS-T containing 5% BSA at 4° C. overnight. The cells were then washed three times with PBS-T for 5 minutes and incubated with 1:1000 dilution secondary antibody (Anti-rabbit IgG, HRP-linked Antibody, Cell Signaling) in PBS-T with 1% BSA for 1 hour at RT. Cells were washed three times with PBS-T for 5 minutes The cells were incubated with 100 μl TMB substrate solution for 30 minutes and the reaction was stopped with 100 μl of 2N H2SO4. […] (For plate optical density calculations, a background correction was taken at 540 nm). The final PGC-1α activation % is average of activation of 6 replicates.

[2] = Table 3, differentiated C2C12 cells, 0.001 nM, DMSO control = 100%, OD@650 nm

COc1cc(C2Oc3ccccc3CC2O)ccc1F (single isomer, unassigned) [Compound 75b, 2-(4-fluoro-3-methoxyphenyl)chroman-3-ol] gave a Cmax [1] of 138 ng/mL, a Tmax [1] of 90 min and an AUC(0-t) [1] of 133 ng·h/mL. The “% Activity (PGC-1α expression)” value (PGC-1α; Table 3, differentiated C2C12 cells, 0.0001 nM, DMSO control = 100%) was 118%, the “% Activity (PGC-1α expression)” value (PGC-1α; [2]) was 125% and the “% Activity (PGC-1α expression)” value (PGC-1α; Table 3, differentiated C2C12 cells, 0.01 nM, DMSO control = 100%) was 122%. For the same compound, the “% Activity (PGC-1α expression)” value (PGC-1α; Table 3, differentiated C2C12 cells, 0.1 nM, DMSO control = 100%) was 116%, the “% Activity (PGC-1α expression)” value (PGC-1α; Table 3, differentiated C2C12 cells, 1 nM, DMSO control = 100%) was 120% and the “% Activity (PGC-1α expression)” value (PGC-1α; Table 4, differentiated C2C12 cells, 0.01 nM, OD at 5 minutes) was 130%.
With Oc1cc(O)c2c(c1)OC(c1ccc(O)c(F)c1)C(O)C2 (single isomer, unassigned) [Compound 76b, 2-(3-fluoro-4-hydroxyphenyl)chromane-3,5,7-triol] the Cmax [1] was 89.3 ng/mL, the Tmax [1] was 15 min and the AUC(0-t) [1] was 45.7 ng·h/mL. The “% Activity (PGC-1α expression)” value (PGC-1α; Table 5, differentiated C2C12, 5000 cells/well, 0.01 nM, DMSO = 100) was 128%.
With Oc1ccc2c(c1)OC(c1ccc(O)c(C(F)(F)F)c1)C(O)C2 (single isomer, unassigned) [Compound 77b, 2-(4-hydroxy-3-(trifluoromethyl)phenyl)chromane-3,7-diol] the “% Activity (PGC-1α expression)” value (PGC-1α; Table 6, C2C12 cells, 5000 cells/well, 0.01 nM) was 138% and the “% Activity (PGC-1α expression)” value (PGC-1α; Table 7, C2C12 cells, 5000 cells/well, 0.01 nM, DMSO = 100) was 135%.
Oc1cc(O)c2c(c1)OC(c1ccccc1)C(O)C2 (single isomer, unassigned) [Compound 78a, 2-phenylchromane-3,5,7-triol] showed a Cmax [1] of 49.8 ng/mL, a Tmax [1] of 15 min and an AUC(0-t) [1] of 59.5 ng·h/mL. For the same compound, the “% Activity (PGC-1α expression)” value (PGC-1α; Table 8, C2C12 cells, 5000 cells/well, 0.01 nM, DMSO = 100) was 128%.
For Oc1cc(O)c2c(c1)O[C@H](c1ccc(O)c(O)c1)[C@H](O)C2 [Epicatechin, (+)Epicatechin, reference compound], the “% Activity (PGC-1α expression)” value (PGC-1α; [2]) was 119%, the “% Activity (PGC-1α expression)” value (PGC-1α; Table 4, differentiated C2C12 cells, 0.001 nM, OD at 5 minutes) was 120% and the “% Activity (PGC-1α expression)” value (PGC-1α; Table 5, differentiated C2C12, 5000 cells/well, 0.001 nM, DMSO = 100) was 133%. For the same compound, the “% Activity (PGC-1α expression)” value (PGC-1α; Table 6, C2C12 cells, 5000 cells/well, 0.001 nM) was 127%, the “% Activity (PGC-1α expression)” value (PGC-1α; Table 7, C2C12 cells, 5000 cells/well, 0.001 nM, DMSO = 100) was 133% and the “% Activity (PGC-1α expression)” value (PGC-1α; Table 8, C2C12 cells, 5000 cells/well, 0.001 nM, DMSO = 100) was 139%.
